{
  "source": "the supplement of paper PMC10307832",
  "assay_in_all_cases": "relative viability (nuclei count vs DMSO), 5 days (fraction); higher = more cells survive",
  "key": {"Crenolanib + Tozasertib": {"compound": "CC1(COc2ccc3c(c2)ncn3-c2ccc3cccc(N4CCC(N)CC4)c3n2)COC1 [Crenolanib] + Cc1cc(Nc2cc(N3CCN(C)CC3)nc(Sc3ccc(NC(=O)C4CC4)cc3)n2)n[nH]1 [Tozasertib] (partner 0.1 µM)", "procedure,_shortened": "(§1)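 Dosing by pin tool came one day after lung cancer cell lines were seeded in 1536-well plates, using either one drug or a fixed anchor-drug dose plus five library-drug doses (not always all listed) in √10 steps. After 5 days, nuclei were counted on 4× images. Relative viability is treated-well nuclei count divided by vehicle-well nuclei count, and values are medians of duplicate plates.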"}, "Tivantinib + Pemetrexed": {"compound": "O=C1NC(=O)[C@@H](c2cn3c4c(cccc24)CCC3)[C@@H]1c1c[nH]c2ccccc12 [Tivantinib] + Nc1nc2[nH]cc(CCc3ccc(C(=O)N[C@@H](CCC(=O)O)C(=O)O)cc3)c2c(=O)[nH]1 [Pemetrexed] (partner 0.2 µM)", "procedure,_shortened": "as §1"}, "Tivantinib + Dasatinib": {"compound": "O=C1NC(=O)[C@@H](c2cn3c4c(cccc24)CCC3)[C@@H]1c1c[nH]c2ccccc12 [Tivantinib] + Cc1nc(Nc2ncc(C(=O)Nc3c(C)cccc3Cl)s2)cc(N2CCN(CCO)CC2)n1 [Dasatinib] (partner 0.075 µM)", "procedure,_shortened": "as §1"}, "Tivantinib + OSI-027": {"compound": "O=C1NC(=O)[C@@H](c2cn3c4c(cccc24)CCC3)[C@@H]1c1c[nH]c2ccccc12 [Tivantinib] + COc1cccc2cc(-c3nc([C@H]4CC[C@H](C(=O)O)CC4)n4ncnc(N)c34)[nH]c12 [OSI-027] (partner 0.5 µM)", "procedure,_shortened": "as §1"}},
  "data": [
    {"cell line": "UMC-11", "values": [
      {"measurement": "relative viability", "setting": "Crenolanib + Tozasertib; first compound 0.01 µM", "value": 0.193},
      {"measurement": "relative viability", "setting": "Crenolanib + Tozasertib; first compound 0.03162 µM", "value": 0.207},
      {"measurement": "relative viability", "setting": "Crenolanib + Tozasertib; first compound 0.1 µM", "value": 0.213},
      {"measurement": "relative viability", "setting": "Crenolanib + Tozasertib; first compound 0.3162 µM", "value": 0.189},
      {"measurement": "relative viability", "setting": "Crenolanib + Tozasertib; first compound 1 µM", "value": 0.192},
      {"measurement": "relative viability", "setting": "Tivantinib + Pemetrexed; first compound 0.01 µM", "value": 0.772},
      {"measurement": "relative viability", "setting": "Tivantinib + Pemetrexed; first compound 0.03162 µM", "value": 0.759},
      {"measurement": "relative viability", "setting": "Tivantinib + Pemetrexed; first compound 0.1 µM", "value": 0.75},
      {"measurement": "relative viability", "setting": "Tivantinib + Pemetrexed; first compound 0.3162 µM", "value": 0.803},
      {"measurement": "relative viability", "setting": "Tivantinib + Dasatinib; first compound 0.01 µM", "value": 0.43},
      {"measurement": "relative viability", "setting": "Tivantinib + Dasatinib; first compound 0.03162 µM", "value": 0.491},
      {"measurement": "relative viability", "setting": "Tivantinib + Dasatinib; first compound 0.1 µM", "value": 0.421},
      {"measurement": "relative viability", "setting": "Tivantinib + Dasatinib; first compound 0.3162 µM", "value": 0.614},
      {"measurement": "relative viability", "setting": "Tivantinib + OSI-027; first compound 0.01 µM", "value": 0.451},
      {"measurement": "relative viability", "setting": "Tivantinib + OSI-027; first compound 0.03162 µM", "value": 0.456},
      {"measurement": "relative viability", "setting": "Tivantinib + OSI-027; first compound 0.1 µM", "value": 0.465},
      {"measurement": "relative viability", "setting": "Tivantinib + OSI-027; first compound 0.3162 µM", "value": 0.521}
    ]}
  ]
}
